According to PMC3948622, “Docking, Synthesis and Antiproliferative Activity of N-Acylhydrazone Derivatives Designed as Combretastatin A4 Analogues” (PLoS ONE, 2014):
Converted amounts (≈) assume the structure as drawn. Like-named read-outs stand apart in the source and are kept apart here.

Assays:
BALB/c nude mice = details: intraperitoneally for 4 consecutive days, HFA
Protocol: During the HFA, tumor cells (i.e., SF-295 and HCT-116) were cultivated within biocompatible, semipermeable polyvinylidene fluoride hollow fibers (HFs) and subcutaneously (s.c.) implanted within the dorsal portion of BALB/c nude mice. LASSBio-1586 (5b) and 5-Fluorouracil (5-FU), which was the positive control, were administered intraperitoneally for 4 consecutive days. On day 5, the fibers were removed to quantify the antiproliferative activity of 5b and 5-FU.
A total of 26 female BALB/c nude (nu/nu) mice aging 6–8 weeks were obtained from the animal facilities of State University of São Paulo (USP), Faculty of Medicine, São Paulo (SP), Brazil. They were kept in well-ventilated and sterile cages (Alesco, São Paulo) under standard conditions of light (12 h with alternative day and night cycles) and temperature (22±1°C) and were housed with access to commercial sterile rodent stock diet (Nutrilabor, São Paulo, Brazil) and water ad libitum. As previously mentioned procedures are in accordance with guidelines for the welfare of animals in experimental neoplasia and with national and international standard on the care and use of experimental laboratory animals and were approved by the local Ethical Committee on Animal Research (Process No. 102/2007).
Mice were anaesthetized with ketamine (90 mg/kg) - xylazine (4.5 mg/kg) (Sigma Aldrich). Groups were divided into: a) Negative control (DMSO 5%, n = 6); b) Positive control (5-Flouoruracil, 5-FU, 25 mg/kg/day, n = 7) (Sigma Aldrich); c) LASSBio-1586 (5b; 25 mg/kg/day, n = 7); d) LASSBio-1586 (5b; 50 mg/kg/day, n = 6). A small incision in the neck was incised to permit subcutaneous (s.c.) implantation of the fibers in the dorsal part of the animal. Each animal received 2 fibers at s.c. site. All incisions were sealed with a surgical stapler. The test compounds were administered intraperitoneally during 4 consecutive days. On day 5, fibers were removed to quantify the antiproliferative capacity as described above.

SF-295 (glioblastoma) = assay: Hollow Fiber Assay (HFA), SF-295 fibers s.c. in mice; assay type: in vivo, BALB/c nude mice; details: 25 mg/kg/day intraperitoneally, 4 days
Protocol: (§1) Cell culture of SF-295 (glioblastoma) and HCT-116 (colon carcinoma) was performed in RPMI 1640 medium supplemented with 10% fetal bovine serum, 2 mM glutamine, at 37°C with 5% CO2.
(§2) Polyvinylidene fluoride (PVDF) HFs with a 1-mm internal diameter and a molecular weight cutoff point of 500 kDa were used (Spectrum Laboratories, Houston, TX). The fibers were cut into pieces 12–15 cm long, washed 2× with sterile distilled water and kept in sterile conditions.
(§3) Before use, under sterile conditions, the fibers were incubated in complete RPMI with 20% fetal bovine serum (FBS) overnight (packaging time). Cell viability was assessed by trypan blue exclusion assay. Then, a cell suspension of 7.0×10^6 cell/mL at 4°C was injected into the fiber, with the ends thereof immediately heat-sealed. The fibers were cut into 2 cm each, transferred to petri plates and incubated in complete RPMI medium for 24 h prior to implantation in mice. Each cell was injected into one fiber of a different color (HCT-116, yellow fibers; SF-295, blue fibers).
(§4) Each animal received 2 fibers at s.c. site. All incisions were sealed with a surgical stapler.
(§5) Tumor cell proliferation was quantified through the ability of living cells to reduce the yellow dye 3-(4,5-dimethyl-2-thiazolyl)-2,5-diphenyl-2H-tetrazolium bromide (MTT, Sigma Aldrich) to a purple formazan product. For this purpose, the fibers removed from animals were incubated with MTT 1 mg/mL in 6-well plates during 4 h at 37°C, 5% CO2 and 95% humidity. The MTT solution was aspirated; fibers were washed with saline solution containing protamine sulphate 2.5% and incubated in protamine solution overnight at 4°C. Fibers were transferred to 24 well plates, cut into 2 or 3 pieces and put to dry. The formazan was dissolved in […] of DMSO, aliquots (150 uL) were transferred to 96 well plates and absorbance was measured at 595 nm (DTX-880, Beckman Coulter).

[1] = test system: HCT-116 (colon carcinoma); assay: Hollow Fiber Assay (HFA), HCT-116 fibers s.c. in mice; assay type: in vivo, BALB/c nude mice; details: 25 mg/kg/day intraperitoneally, 4 days
Protocol: as §1, §2, §3, §4, §5

MDA-MB435 (melanoma) [2] = assay: In vitro antiproliferative MTT assay, MDA-MB435; assay type: cell-based; details: IC50 for human lymphocytes/IC50 for cancer cell line
Protocol: (§6) The antiproliferative activity of compounds 5a–r was determined based on an MTT assay and using CA-4 as standard against the tumor cell lines: HL-60 (human leukemia), SF-295 (human glioblastoma), MDA-MB435 (melanoma), PC3M (prostate cancer), OVCAR-8 (ovaries adenocarcinoma), NCI-H258M (pulmonary bronchio-alveolar carcinoma) and HCT-8 (adenocarcinoma ileocecal) (Table 2). To determine the selectivity index of compounds 5a–r, their antiproliferative profile was also evaluated toward human lymphocytes (Table 2).
(§7) Compounds (0.009–5 µg/mL) were tested for cytotoxic activity against selected cancer cell lines: SF-295 (glioblastoma), HCT-8 (colon), MDAMB-435 (melanoma), HL60 (leukemia), PC3M (prostate cancer), OVCAR-8 (ovaries adenocarcinoma) and NCI-H258M (pulmonary bronchio-alveolar carcinoma). All cell lines were kindly obtained from the National Cancer Institute (Bethesda, MD, USA).Tumor cell proliferation was quantified through the ability of living cells to reduce the yellow dye 3-(4,5-dimethyl-2-thiazolyl)-2,5-diphenyl-2H-tetrazolium bromide (MTT, Sigma Aldrich)) to a purple formazan product and absorbance was measured at 595 nm (DTX-880, Beckman Coulter).

MDA-MB435 (melanoma) [3] = assay: In vitro antiproliferative MTT assay, MDA-MB435; assay type: cell-based; details: Homo sapiens, MDA-MB-435
human lymphocytes = assay: In vitro antiproliferative assay, human lymphocytes; assay type: cell-based; details: Lymphocyte, Table 2
Protocol: as §6
To investigate the selective cytotoxic activity of the N-acylhydrazones derivatives (5a–r), their antiproliferative potency was also assessed toward human lymphocytes and the results were compared to the data from CA-4 ([…]). The selectivity index (SI), which was the IC50 for human lymphocytes/IC50 for cancer cell lines after treatment with CA-4 and N-acylhydrazones (5a–r), was calculated, as depicted in Table 3. […] The best comparative selectivity indices (CA-4 vs 5b) were obtained from the SF-295 (SI = 13), MDA-MB435 (SI = 42) and NCI-H258M (SI = 9.5) tumor cell lines, and the worst results were found for OVCAR-8 (SI = 0.5).

[4] = test system: SF-295 (human glioblastoma); assay: In vitro antiproliferative MTT assay, SF-295; assay type: cell-based; details: for IC50: Homo sapiens, SF-295, read-out: IC50 SF295; for SI Lymphocyte/ SF-295: IC50 for human lymphocytes/IC50 for cancer cell line
Protocol: as §6, §7

PC3M (prostate cancer) = assay: In vitro antiproliferative MTT assay, PC3M; assay type: cell-based; details: for IC50: Homo sapiens, PC-3M, Table 2, MTT; for SI Lymphocyte/ PC3M: IC50 for human lymphocytes/IC50 for cancer cell line
Protocol: as §6, §7

[5] = test system: NCI-H358M (pulmonary bronchio-alveolar carcinoma); assay: In vitro antiproliferative MTT assay, NCI-H358M; assay type: cell-based; details: for SI Lymphocyte/ NCI-H358M: IC50 for human lymphocytes/IC50 for cancer cell line; for IC50: NCI-H358M, Table 2, MTT
[6] = Aqueous solubility assay by ultraviolet spectroscopy; assay type: physicochemical; details: water (saturated aqueous solution), thermodynamic from solid, 2 hours at 37°C, read-out: Aq. Solubility
Protocol: Ultraviolet spectroscopy was performed using Femto spectrophotometer. The wavelength used in solubility assay was determined by the -λ max characteristic of each compound. Spectra were analyzed in Femtoscan software. Mass spectrometry was obtained by positive ionization at Bruker AmaZon SL and data analyzed in Compass 1.3.SR2 software.
The solubility assay was performed considering the absorptivity of compounds in ultraviolet spectroscopy as described by Schneider and coworkers. The assay wavelength was determined by the λ max characteristic of each compound.
Saturated aqueous solutions were prepared (0.01 mg/mL) and were kept under stirring for 2 hours at 37°C. The supernatant was filtered in 0,45 µm filters and transferred to a quartz cuvette (10 mm) to spectra acquisition.
Solubility was determined by linear regression using as graph plots, solutions prepared by dilutions of the original solution in methanol. The data were obtained in triplicates and the mean values were used to the graph plots. The correlation coefficient (R^2) values were between 0.9972 and 0.9999.

[7] = test system: OVCAR-8 (ovaries adenocarcinoma); assay: In vitro antiproliferative MTT assay, OVCAR-8; assay type: cell-based; details: for IC50: Homo sapiens, OVCAR-8, Table 2, MTT; for SI Lymphocyte/ OVCAR-8: IC50 for human lymphocytes/IC50 for cancer cell line
Protocol: as §6, §7

[8] = test system: HCT-8 (adenocarcinoma ileocecal); assay: In vitro antiproliferative MTT assay, HCT-8; assay type: cell-based; details: for IC50: Homo sapiens, HCT-8; for SI Lymphocyte/ HCT-8: IC50 for human lymphocytes/IC50 for cancer cell line
Protocol: as §6, §7

HL-60 (human leukemia) = assay: In vitro antiproliferative MTT assay, HL-60; assay type: cell-based; details: for IC50: Homo sapiens, HL-60; for SI Lymphocyte/ HL-60: IC50 for human lymphocytes/IC50 for cancer cell line
Protocol: as §6, §7

tumor cell lines = assay: In vitro antiproliferative MTT assay, tumor cell lines (summary over the panel); assay type: cell-based; details: for cytotoxic activity (in words): HL-60, SF296, HCT-8 and MDA-MB435 tumor cells
Protocol: as §6, §7

Row | SMILES | SI Lymphocyte/ MDA-MB345 (MDA-MB435 (melanoma) [2]) | IC50 (MDA-MB435 (melanoma) [3]; Table 2, MTT) | IC50 (human lymphocytes) | melting point | IC50 ([4]; Table 2, MTT) | SI Lymphocyte/ SF-295 [4] | IC50 (PC3M (prostate cancer)) | SI Lymphocyte/ PC3M (PC3M (prostate cancer)) | SI Lymphocyte/ NCI-H358M [5] | IC50 [5] | solubility at 2 h [6] | IC50 [7] | SI Lymphocyte/ OVCAR-8 [7] | IC50 ([8]; Table 2, MTT) | SI Lymphocyte/ HCT-8 [8] | IC50 (HL-60 (human leukemia); Table 2, MTT) | SI Lymphocyte/ HL-60 (HL-60 (human leukemia)) | IC50 (MDA-MB435 (melanoma) [3]; Table 4) | IC50 ([4]; Table 4) | cytotoxic activity (in words) (tumor cell lines) | further results
1 | O=c1[nH]cc(F)c(=O)[nH]1 [Compound 5-FU, 5-Fluorouracil, reference compound] |  |  |  |  |  |  |  |  |  |  |  |  |  |  |  |  |  |  |  |  | deaths of mice during treatment (BALB/c nude mice): no deaths occurred; Inhibition (%) SF-295 (SF-295 (glioblastoma)): 65.40%; Proliferation (OD595 nm) SF-295 (SF-295 (glioblastoma); mean ± S.E.M.): 0.52±0.08 OD595 nm; Inhibition (%) HCT-116 [1]: 62.08%; Proliferation (OD595 nm) HCT-116 ([1]; mean ± S.E.M.): 0.59±0.10 OD595 nm
2 | COc1cc(C(=O)N/N=C/c2cc(C(C)(C)C)c(O)c(C(C)(C)C)c2)cc(OC)c1OC [Compound 5k, (E)-N′-(3,5-di-tert-butyl-4hydroxybenzylidene)-3,4,5-trimetoxybenzohydrazide] | 1 | > 25 µM | > 56.5 µM | 222 to 224 °C | > 25 µM | 1 | > 25 µM | 1 | 1 | > 25 µM | 0.0236 µg/mL (≈ 0.0533 µM) | > 25 µM | 1 | > 25 µM | 1 | > 25 µM | 1.1 |  |  |  | 
3 | COc1cc(C(=O)N/N=C/c2ccc(-c3ccccc3)cc2)cc(OC)c1OC [Compound 5n, (E)-N′-(biphenyl-4-ylmethylene)-3,4,5-trimethoxyibenzohydrazide] | 1.0 | > 25 µM | > 64.1 µM | 187 to 188 °C | > 25 µM | 1.0 | > 25 µM | 1 | 1 | > 25 µM | 0.0606 µg/mL (≈ 0.155 µM) | > 25 µM | 1 | > 25 µM | 1.0 | > 25 µM | 1.0 |  |  |  | IC50 (tumor cell lines; summary in text over the cell lines of Table 2, read-out: IC50 (antiproliferative potency over the tumor cell lines)): > 25 µM
4 | COc1cc(C(=O)N/N=C/c2ccc(F)cc2)cc(OC)c1OC [Compound 5p, (E)-N′-(4-fluorobenzylidene) - 3,4,5-trimetoxybenzohyidrazide] | 2.34±0.06 | 1.58 µM | 3.82 µM | 181 to 182 °C | 2.69 µM | 1.46±0.06 | 4.48 µM | 0.89±0.01 | 1.76±0.04 | 2.16 µM | 20.9 µg/mL (≈ 62.9 µM) | 0.96 µM | 4.38±0.38 | 2.02 µM | 1.85±0.04 | 1.27 µM | 3.11±0.11 |  |  |  | 
5 | COc1cc(C(=O)N/N=C/c2ccc(Cl)cc2)cc(OC)c1OC [Compound 5q, (E)-N′-(4-chlorobenzylidene)-3,4,5-trimetoxybenzohyidrazide] | 3.07±0.22 | 0.018 µM | 0.06 µM | 187 to 188 °C | 0.072 µM | 0.85±0.05 | 0.0275 µM | 2.10±0.10 | 0.05±0.005 | 1.05 µM | 28.4 µg/mL (≈ 81.4 µM) | 0.024 µM | 2.75±0.25 | 0.046 µM | 1.25±0.05 | 0.036 µM | 1.85±0.15 |  |  |  | 
6 | O=C(N/N=C/c1ccccc1)c1ccccc1 [Compound 9, (E)-N′-benzylidenebenzohydrazide] |  |  |  | 211 to 212 °C |  |  |  |  |  |  |  |  |  |  |  |  |  | > 25 µM | > 25 µM | loss of cytotoxic activity | IC50 ([8]; Table 4): > 25 µM; IC50 (HL-60 (human leukemia); Table 4): > 25 µM
7 | COc1cc(/C=N/NC(=O)c2ccccc2)cc(OC)c1OC [Compound 10, (E)-N′-(3,4,5-trimethoxybenzylidene)-benzohydrazide] |  |  |  | 211 to 212 °C |  |  |  |  |  |  |  |  |  |  |  |  |  | > 25 µM | > 25 µM | inactive | IC50 ([8]; Table 4): > 25 µM; IC50 (HL-60 (human leukemia); Table 4): > 25 µM
8 | COc1cc(NC(=O)N/N=C/c2ccccc2)cc(OC)c1OC [Compound 12, (E)-2-benzylidene-N-(3,4,5-trimetoxyphenyl) hydrazinecarboxamide] |  |  |  | 217 °C |  |  |  |  |  |  |  |  |  |  |  |  |  | > 25 µM | > 25 µM | inactive | IC50 ([8]; Table 4): > 25 µM; IC50 (HL-60 (human leukemia); Table 4): > 25 µM
